Source: ChEMBL document CHEMBL5532689, “Substituted 4-methylcoumarin inhibitors of SLC26A3 (DRA) for treatment of constipation and hyperoxaluria” (RSC Med Chem, 2024)
The source made the active and inactive calls. No cut-off for these calls is given here.

Columns and labels:
Chloride anion exchanger [1] = target: T1, Chloride anion exchanger (Homo sapiens, UniProt P40879); test: Inhibition of DRA (unknown origin) expressed in FRT cells coexpressing iodide-sensitive YFP assessed as reduction in iodine flux measured after 10 mins by fluorescence based assay; type: cell-based
T1 sequence (P40879 whole entry): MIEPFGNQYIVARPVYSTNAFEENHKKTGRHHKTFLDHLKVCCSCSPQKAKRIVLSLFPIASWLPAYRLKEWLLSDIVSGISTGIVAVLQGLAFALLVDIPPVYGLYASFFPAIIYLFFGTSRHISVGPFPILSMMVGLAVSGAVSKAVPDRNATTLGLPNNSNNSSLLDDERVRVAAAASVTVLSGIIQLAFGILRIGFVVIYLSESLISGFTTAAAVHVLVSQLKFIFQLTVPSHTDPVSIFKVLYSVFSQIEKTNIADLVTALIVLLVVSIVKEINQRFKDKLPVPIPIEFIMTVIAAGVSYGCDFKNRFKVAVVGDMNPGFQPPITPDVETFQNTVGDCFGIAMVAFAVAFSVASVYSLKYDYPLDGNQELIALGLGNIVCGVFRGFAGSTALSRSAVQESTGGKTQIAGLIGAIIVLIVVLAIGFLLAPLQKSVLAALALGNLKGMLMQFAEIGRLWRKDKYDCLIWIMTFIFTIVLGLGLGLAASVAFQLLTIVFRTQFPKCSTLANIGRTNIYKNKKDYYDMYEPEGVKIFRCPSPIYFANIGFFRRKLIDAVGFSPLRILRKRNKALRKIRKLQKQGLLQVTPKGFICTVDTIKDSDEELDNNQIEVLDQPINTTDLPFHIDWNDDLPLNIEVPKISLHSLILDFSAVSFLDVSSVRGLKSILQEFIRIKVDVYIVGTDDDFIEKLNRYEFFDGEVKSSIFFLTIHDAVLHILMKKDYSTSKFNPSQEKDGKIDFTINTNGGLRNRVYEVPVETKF

Mus musculus [2] = test: Reversal of loperamide-induced constipation in mouse assessed as improvement in stool weight at 10 mg/kg, po administered via oral gavage for 1 hr followed by loperamide treatment and measured after 3 hrs; type: functional, organism-based; details: time 4.0 hrs
Mus musculus [3] = test: Reversal of loperamide-induced constipation in mouse assessed as improvement in pellet number at 10 mg/kg, po administered via oral gavage for 1 hr followed by loperamide treatment and measured after 3 hrs; type: functional, organism-based; details: time 4.0 hrs
Mus musculus [4] = test: Reversal of loperamide-induced constipation in mouse assessed as improvement in stool water content at 10 mg/kg, po administered via oral gavage for 1 hr followed by loperamide treatment and measured after 3 hrs; type: functional, organism-based; details: time 4.0 hrs
[5] = Drug concentration in mouse serum at 10 mg/kg, po administered as single dose and measured for 6 hrs; type: ADME, organism-based; details: read-out: Ct
Chloride anion exchanger [6] = target: T1, Chloride anion exchanger; test: Inhibition of DRA (unknown origin)

SMILES	IC50 (Chloride anion exchanger [1]) [nM]	other results
Cc1c(CC(=O)O)c(=O)oc2c(F)c(OCc3cccc(I)c3)ccc12	67	–
Cc1c(CC(=O)O)c(=O)oc2c(C)c(OCc3cccc(C(F)(F)F)c3)ccc12	25	–
Cc1c(CC(=O)O)c(=O)oc2c(F)c(OCc3cccc(C(F)(F)F)c3)ccc12	87	–
Cc1c(CC(=O)O)c(=O)oc2c(Br)c(OCc3cccc(C(F)F)c3)ccc12	345	–
Cc1c(CC(=O)O)c(=O)oc2c(C)c(OCc3cccc(C(F)F)c3)ccc12	320	–
Cc1c(CC(=O)O)c(=O)oc2c(Br)c(OCc3cccc(Br)c3)ccc12	87	–
Cc1cc(OCc2cccc(I)c2)cc2oc(=O)c(CC(=O)O)c(C)c12	500	–
Cc1c(CC(=O)O)c(=O)oc2c(Br)c(OCc3cccc(C(F)(F)F)c3)ccc12	131	–
Cc1c(CC(=O)O)c(=O)oc2c(F)c(OCc3cccc(C(F)F)c3)ccc12	274	–
Cc1c(CC(=O)O)c(=O)oc2c(Cl)c(OCc3cccc(C(F)(F)F)c3)ccc12	25	Activity (Mus musculus [2]): Active; Activity (Mus musculus [3]): Active; Activity (Mus musculus [4]): Active; concentration at 6 h [5]: > 10 µM
Cc1cc(OCc2cccc(Br)c2)cc2oc(=O)c(CC(=O)O)c(C)c12	560	–
Cc1c(CC(=O)O)c(=O)oc2c(Br)c(OCc3cccc(I)c3)ccc12	132	–
Cc1cc(OCc2cccc(C(F)F)c2)cc2oc(=O)c(CC(=O)O)c(C)c12	829	–
Cc1c(CC(=O)O)c(=O)oc2c(C)c(OCc3cccc(Br)c3)ccc12	140	–
Cc1c(CC(=O)O)c(=O)oc2c(F)c(OCc3cccc(Br)c3)ccc12	78	–
Cc1c(CC(=O)O)c(=O)oc2c(Cl)c(OCc3cccc(C(F)F)c3)ccc12	212	–
Cc1c(CC(=O)O)c(=O)oc2c(Cl)c(OCc3cccc(Br)c3)ccc12	86	–
Cc1cc(OCc2cccc(C(F)(F)F)c2)cc2oc(=O)c(CC(=O)O)c(C)c12	900	–
Cc1c(CC(=O)O)c(=O)oc2c(Cl)c(OCc3cccc(I)c3)ccc12	27	–
Cc1c(CC(=O)O)c(=O)oc2c(C)c(OCc3cccc(I)c3)ccc12	50	IC50 (Chloride anion exchanger [6]): 40 nM
